In ChEMBL document CHEMBL4507310, “Data for DCP probe A-1211212” (2021):

Key:
[1] = molecular target: Acetylcholinesterase (Homo sapiens) (UniProt P22303); assay: Acetylcholinesterase (h) Eurofins-Cerep enzyme and uptake assay; conditions: Compound concentration 10.0 uM
[2] = molecular target: Neuropeptide Y receptor type 1 (Homo sapiens) (UniProt P25929); assay: Y1 (h) Eurofins-Cerep binding assay; set-up: ligand concentration 0.025 nM; conditions: filed as agonist, Compound concentration 10.0 uM
Chain of Neuropeptide Y receptor type 1 (Homo sapiens) (P25929 whole entry): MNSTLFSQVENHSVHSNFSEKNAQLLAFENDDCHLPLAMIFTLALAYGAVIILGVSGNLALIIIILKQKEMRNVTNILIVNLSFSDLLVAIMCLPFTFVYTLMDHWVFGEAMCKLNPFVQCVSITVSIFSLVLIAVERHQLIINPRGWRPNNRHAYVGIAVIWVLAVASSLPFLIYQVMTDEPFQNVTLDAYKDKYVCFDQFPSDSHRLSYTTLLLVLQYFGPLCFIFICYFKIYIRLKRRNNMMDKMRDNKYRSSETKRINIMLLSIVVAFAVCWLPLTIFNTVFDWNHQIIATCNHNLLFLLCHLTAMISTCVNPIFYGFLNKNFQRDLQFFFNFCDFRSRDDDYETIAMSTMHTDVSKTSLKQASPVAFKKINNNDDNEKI

[3] = molecular target: Kappa-type opioid receptor (Homo sapiens) (UniProt P41145); assay: kappa (h) (KOP) Eurofins-Cerep binding assay; set-up: ligand concentration 0.5 nM; conditions: filed as agonist, Compound concentration 10.0 uM
Chain of Kappa-type opioid receptor (Homo sapiens) (P41145 whole entry): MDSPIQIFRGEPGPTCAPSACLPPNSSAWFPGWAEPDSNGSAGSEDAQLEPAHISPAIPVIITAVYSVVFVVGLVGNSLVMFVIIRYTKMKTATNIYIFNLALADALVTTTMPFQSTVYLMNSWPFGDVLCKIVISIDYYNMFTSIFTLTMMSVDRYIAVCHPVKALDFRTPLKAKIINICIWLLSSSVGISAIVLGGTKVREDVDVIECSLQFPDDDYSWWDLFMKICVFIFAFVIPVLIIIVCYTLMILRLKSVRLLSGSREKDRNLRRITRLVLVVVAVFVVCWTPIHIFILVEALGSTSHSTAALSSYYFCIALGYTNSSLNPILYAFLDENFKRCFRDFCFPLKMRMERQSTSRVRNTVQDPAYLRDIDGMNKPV

[4] = molecular target: Prostaglandin E2 receptor EP2 subtype (Homo sapiens) (UniProt P43116); assay: EP2 (h) Eurofins-Cerep binding assay; set-up: ligand concentration 3 nM; conditions: filed as agonist, Compound concentration 10.0 uM
Chain of Prostaglandin E2 receptor EP2 subtype (Homo sapiens) (P43116 whole entry): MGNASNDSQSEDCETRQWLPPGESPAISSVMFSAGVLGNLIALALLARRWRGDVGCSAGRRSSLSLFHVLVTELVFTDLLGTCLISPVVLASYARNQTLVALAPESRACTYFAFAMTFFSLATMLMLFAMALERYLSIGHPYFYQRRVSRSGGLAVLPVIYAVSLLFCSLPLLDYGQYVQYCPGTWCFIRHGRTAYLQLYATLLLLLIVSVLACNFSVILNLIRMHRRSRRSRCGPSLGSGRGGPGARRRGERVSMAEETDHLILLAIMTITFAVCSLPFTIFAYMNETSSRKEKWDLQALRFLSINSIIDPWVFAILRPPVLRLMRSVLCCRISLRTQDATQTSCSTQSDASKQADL

[5] = molecular target: 5-hydroxytryptamine receptor 7 (Homo sapiens) (UniProt P34969); assay: 5-HT7 (h) Eurofins-Cerep binding assay; set-up: ligand concentration 4 nM; conditions: filed as agonist, Compound concentration 10.0 uM
[6] = molecular target: Sodium-dependent dopamine transporter (Homo sapiens, UniProt Q01959); assay: dopamine transporter (h) Eurofins-Cerep binding assay; set-up: ligand concentration 4 nM; conditions: filed as antagonist, Compound concentration 10.0 uM
[7] = system: Tyrosine-protein kinase ABL1 (Homo sapiens), P00519 [Q252H]; conditions: Compound concentration 1000.0 nM
[8] = molecular target: Tyrosine-protein kinase ABL1 (Homo sapiens) (UniProt P00519); conditions: Compound concentration 1000.0 nM
[9] = molecular target: 5'-AMP-activated protein kinase catalytic subunit alpha-1 (Homo sapiens) (UniProt Q13131); conditions: Compound concentration 1000.0 nM
Chain of 5'-AMP-activated protein kinase catalytic subunit alpha-1 (Homo sapiens) (Q13131 whole entry, looked up): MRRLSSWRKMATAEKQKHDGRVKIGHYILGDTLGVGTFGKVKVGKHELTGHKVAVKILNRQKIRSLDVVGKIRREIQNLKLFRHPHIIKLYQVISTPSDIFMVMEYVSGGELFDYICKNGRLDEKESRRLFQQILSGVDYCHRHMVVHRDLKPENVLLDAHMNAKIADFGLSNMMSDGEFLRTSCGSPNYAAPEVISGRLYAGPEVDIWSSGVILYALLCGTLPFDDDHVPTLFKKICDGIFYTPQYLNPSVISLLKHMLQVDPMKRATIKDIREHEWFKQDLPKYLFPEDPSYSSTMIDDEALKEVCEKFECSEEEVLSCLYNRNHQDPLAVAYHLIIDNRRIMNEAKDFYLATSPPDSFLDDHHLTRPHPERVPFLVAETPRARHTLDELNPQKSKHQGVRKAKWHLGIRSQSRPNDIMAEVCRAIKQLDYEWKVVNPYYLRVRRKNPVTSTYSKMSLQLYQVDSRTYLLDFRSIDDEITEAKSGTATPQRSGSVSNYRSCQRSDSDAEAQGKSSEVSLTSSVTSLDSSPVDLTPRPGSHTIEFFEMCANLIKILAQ

[10] = molecular target: Bone morphogenetic protein receptor type-1A (Homo sapiens) (UniProt P36894); conditions: Compound concentration 1000.0 nM
Chain of Bone morphogenetic protein receptor type-1A (Homo sapiens) (P36894 whole entry): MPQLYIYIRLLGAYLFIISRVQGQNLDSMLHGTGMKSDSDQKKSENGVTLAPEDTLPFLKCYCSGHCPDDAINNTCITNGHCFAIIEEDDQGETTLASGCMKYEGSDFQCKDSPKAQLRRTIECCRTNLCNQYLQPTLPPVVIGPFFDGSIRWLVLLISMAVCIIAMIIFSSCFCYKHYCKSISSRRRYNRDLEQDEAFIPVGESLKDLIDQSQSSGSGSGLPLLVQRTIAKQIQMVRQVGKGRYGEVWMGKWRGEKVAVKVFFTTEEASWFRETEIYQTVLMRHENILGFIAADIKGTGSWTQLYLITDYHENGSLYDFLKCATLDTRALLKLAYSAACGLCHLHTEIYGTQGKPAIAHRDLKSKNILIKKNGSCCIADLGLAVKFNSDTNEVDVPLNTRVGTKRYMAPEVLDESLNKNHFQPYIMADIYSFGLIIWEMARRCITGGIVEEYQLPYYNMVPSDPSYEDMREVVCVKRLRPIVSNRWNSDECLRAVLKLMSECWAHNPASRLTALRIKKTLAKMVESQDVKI

[11] = molecular target: Calcium/calmodulin-dependent protein kinase type 1G (Homo sapiens) (UniProt Q96NX5); conditions: Compound concentration 1000.0 nM
[12] = molecular target: Peripheral plasma membrane protein CASK (Homo sapiens) (UniProt O14936); conditions: Compound concentration 1000.0 nM
[13] = molecular target: Cyclin-dependent kinase 4 (Homo sapiens) (UniProt P11802); conditions: Compound concentration 1000.0 nM
[14] = molecular target: Cyclin-dependent kinase-like 1 (Homo sapiens) (UniProt Q00532); conditions: Compound concentration 1000.0 nM
[15] = molecular target: Myotonin-protein kinase (Homo sapiens) (UniProt Q09013); conditions: Compound concentration 1000.0 nM
[16] = system: Epidermal growth factor receptor (Homo sapiens), P00533 [L858R,T790M]; conditions: Compound concentration 1000.0 nM
[17] = system: Epidermal growth factor receptor (Homo sapiens), P00533 [L861Q]; conditions: Compound concentration 1000.0 nM
[18] = molecular target: Receptor tyrosine-protein kinase erbB-4 (Homo sapiens) (UniProt Q15303); conditions: Compound concentration 1000.0 nM
[19] = molecular target: Mitogen-activated protein kinase 15 (Homo sapiens) (UniProt Q8TD08); conditions: Compound concentration 1000.0 nM
[20] = system: Receptor-type tyrosine-protein kinase FLT3 (Homo sapiens), P36888 [D835V]; conditions: Compound concentration 1000.0 nM
[21] = system: Receptor-type tyrosine-protein kinase FLT3 (Homo sapiens), P36888 [D835Y]; conditions: Compound concentration 1000.0 nM
[22] = system: Receptor-type tyrosine-protein kinase FLT3 (Homo sapiens), P36888 [UNDEFINED MUTATION]; conditions: Compound concentration 1000.0 nM
[23] = molecular target: Tyrosine-protein kinase Fyn (Homo sapiens) (UniProt P06241); conditions: Compound concentration 1000.0 nM
[24] = molecular target: Cyclin-G-associated kinase (Homo sapiens) (UniProt O14976); conditions: Compound concentration 1000.0 nM
[25] = molecular target: Interleukin-1 receptor-associated kinase 3 (Homo sapiens) (UniProt Q9Y616); conditions: Compound concentration 1000.0 nM
[26] = molecular target: Serine/threonine-protein kinase LATS2 (Homo sapiens) (UniProt Q9NRM7); conditions: Compound concentration 1000.0 nM
[27] = molecular target: Mitogen-activated protein kinase kinase kinase kinase 2 (Homo sapiens) (UniProt Q12851); conditions: Compound concentration 1000.0 nM
[28] = molecular target: Mitogen-activated protein kinase kinase kinase kinase 5 (Homo sapiens) (UniProt Q9Y4K4); conditions: Compound concentration 1000.0 nM
[29] = molecular target: Microtubule-associated serine/threonine-protein kinase 1 (Homo sapiens) (UniProt Q9Y2H9); conditions: Compound concentration 1000.0 nM
Chain of Microtubule-associated serine/threonine-protein kinase 1 (Homo sapiens) (Q9Y2H9 whole entry, looked up): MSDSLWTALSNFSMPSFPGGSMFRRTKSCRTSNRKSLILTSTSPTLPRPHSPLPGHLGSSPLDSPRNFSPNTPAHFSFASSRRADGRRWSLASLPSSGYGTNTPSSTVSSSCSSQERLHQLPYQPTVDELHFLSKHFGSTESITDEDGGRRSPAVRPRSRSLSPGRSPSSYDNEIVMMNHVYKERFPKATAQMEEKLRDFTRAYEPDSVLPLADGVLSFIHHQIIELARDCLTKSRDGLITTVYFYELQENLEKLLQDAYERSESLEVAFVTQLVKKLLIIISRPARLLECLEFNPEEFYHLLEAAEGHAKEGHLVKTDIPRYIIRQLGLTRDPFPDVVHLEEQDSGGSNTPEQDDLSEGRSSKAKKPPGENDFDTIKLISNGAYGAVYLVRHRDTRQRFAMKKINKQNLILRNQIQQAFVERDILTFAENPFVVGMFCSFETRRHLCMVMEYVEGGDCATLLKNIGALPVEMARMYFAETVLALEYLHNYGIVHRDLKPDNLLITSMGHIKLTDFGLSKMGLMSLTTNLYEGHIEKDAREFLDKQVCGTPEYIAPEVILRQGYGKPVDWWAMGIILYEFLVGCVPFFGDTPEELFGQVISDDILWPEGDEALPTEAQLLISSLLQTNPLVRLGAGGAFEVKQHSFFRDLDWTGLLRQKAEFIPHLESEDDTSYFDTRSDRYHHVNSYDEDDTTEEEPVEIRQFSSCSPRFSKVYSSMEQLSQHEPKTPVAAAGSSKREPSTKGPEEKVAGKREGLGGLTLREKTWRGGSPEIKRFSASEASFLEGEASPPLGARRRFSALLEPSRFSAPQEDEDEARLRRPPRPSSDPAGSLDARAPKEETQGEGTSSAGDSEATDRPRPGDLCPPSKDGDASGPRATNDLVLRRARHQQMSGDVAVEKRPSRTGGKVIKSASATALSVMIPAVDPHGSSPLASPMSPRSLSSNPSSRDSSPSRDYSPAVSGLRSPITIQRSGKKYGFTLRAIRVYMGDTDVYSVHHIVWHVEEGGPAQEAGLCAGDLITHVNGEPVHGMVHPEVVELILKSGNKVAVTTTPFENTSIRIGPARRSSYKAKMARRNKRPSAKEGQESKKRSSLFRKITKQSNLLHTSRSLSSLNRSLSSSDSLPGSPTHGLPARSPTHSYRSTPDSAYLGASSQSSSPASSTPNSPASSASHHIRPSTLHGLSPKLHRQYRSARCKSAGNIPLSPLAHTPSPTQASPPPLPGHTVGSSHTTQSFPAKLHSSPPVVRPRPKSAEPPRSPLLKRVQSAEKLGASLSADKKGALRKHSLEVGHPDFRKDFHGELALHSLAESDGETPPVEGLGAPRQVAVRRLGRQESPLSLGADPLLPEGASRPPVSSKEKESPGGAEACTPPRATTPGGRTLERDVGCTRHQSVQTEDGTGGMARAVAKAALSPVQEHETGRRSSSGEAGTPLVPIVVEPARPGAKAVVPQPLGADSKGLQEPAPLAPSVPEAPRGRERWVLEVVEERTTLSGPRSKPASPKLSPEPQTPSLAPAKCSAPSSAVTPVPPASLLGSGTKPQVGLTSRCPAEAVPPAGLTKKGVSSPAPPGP

[30] = molecular target: Dual specificity mitogen-activated protein kinase kinase 7 (Homo sapiens) (UniProt O14733); conditions: Compound concentration 1000.0 nM
[31] = molecular target: Serine/threonine-protein kinase Nek1 (Homo sapiens) (UniProt Q96PY6); conditions: Compound concentration 1000.0 nM
[32] = molecular target: Mitogen-activated protein kinase 11 (Homo sapiens) (UniProt Q15759); conditions: Compound concentration 1000.0 nM
[33] = molecular target: Phosphorylase b kinase gamma catalytic chain, skeletal muscle/heart isoform (Homo sapiens) (UniProt Q16816); conditions: Compound concentration 1000.0 nM
[34] = system: Phosphatidylinositol 4,5-bisphosphate 3-kinase catalytic subunit alpha isoform (Homo sapiens), P42336 [E545A]; conditions: Compound concentration 1000.0 nM
Chain of Phosphatidylinositol 4,5-bisphosphate 3-kinase catalytic subunit alpha isoform (Homo sapiens), P42336 [E545A] (P42336 whole entry E545A, canonical isoform): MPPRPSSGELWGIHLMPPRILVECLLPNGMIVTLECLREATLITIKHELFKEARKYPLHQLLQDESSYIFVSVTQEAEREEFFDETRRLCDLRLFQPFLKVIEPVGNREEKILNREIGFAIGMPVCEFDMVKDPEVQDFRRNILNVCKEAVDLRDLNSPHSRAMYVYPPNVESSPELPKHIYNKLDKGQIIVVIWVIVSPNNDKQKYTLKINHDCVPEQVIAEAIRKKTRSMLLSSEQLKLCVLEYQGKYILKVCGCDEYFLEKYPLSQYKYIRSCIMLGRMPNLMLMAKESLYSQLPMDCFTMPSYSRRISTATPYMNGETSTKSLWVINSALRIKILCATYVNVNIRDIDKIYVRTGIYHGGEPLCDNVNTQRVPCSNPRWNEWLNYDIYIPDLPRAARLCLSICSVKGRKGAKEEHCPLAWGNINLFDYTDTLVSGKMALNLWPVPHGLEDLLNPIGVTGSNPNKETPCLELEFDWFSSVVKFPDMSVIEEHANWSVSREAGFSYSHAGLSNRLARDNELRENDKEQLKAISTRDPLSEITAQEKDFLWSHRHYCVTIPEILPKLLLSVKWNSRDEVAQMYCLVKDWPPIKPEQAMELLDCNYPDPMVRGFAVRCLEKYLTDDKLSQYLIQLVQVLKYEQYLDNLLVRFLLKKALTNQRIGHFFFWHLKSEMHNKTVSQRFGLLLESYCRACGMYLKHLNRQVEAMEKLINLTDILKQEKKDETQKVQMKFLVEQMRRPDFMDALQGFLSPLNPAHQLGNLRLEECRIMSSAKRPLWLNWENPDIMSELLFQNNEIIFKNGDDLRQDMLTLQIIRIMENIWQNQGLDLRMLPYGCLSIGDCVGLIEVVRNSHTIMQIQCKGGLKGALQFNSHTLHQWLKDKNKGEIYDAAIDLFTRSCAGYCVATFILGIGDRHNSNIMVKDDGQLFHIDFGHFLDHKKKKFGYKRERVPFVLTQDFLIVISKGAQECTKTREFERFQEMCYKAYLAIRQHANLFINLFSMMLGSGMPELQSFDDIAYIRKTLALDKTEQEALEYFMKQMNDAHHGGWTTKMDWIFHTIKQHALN

[35] = molecular target: cAMP-dependent protein kinase catalytic subunit beta (Homo sapiens) (UniProt P22694); conditions: Compound concentration 1000.0 nM
[36] = system: Proto-oncogene tyrosine-protein kinase receptor Ret (Homo sapiens), P07949 [M918T]; conditions: Compound concentration 1000.0 nM
[37] = molecular target: Rho-associated protein kinase 1 (Homo sapiens) (UniProt Q13464); conditions: Compound concentration 1000.0 nM
[38] = molecular target: Rho-associated protein kinase 2 (Homo sapiens) (UniProt O75116); conditions: Compound concentration 1000.0 nM
[39] = molecular target: SRSF protein kinase 2 (Homo sapiens) (UniProt P78362); conditions: Compound concentration 1000.0 nM
[40] = molecular target: Serine/threonine-protein kinase TAO1 (Homo sapiens) (UniProt Q7L7X3); conditions: Compound concentration 1000.0 nM
[41] = molecular target: High affinity nerve growth factor receptor (Homo sapiens) (UniProt P04629); conditions: Compound concentration 1000.0 nM
[42] = molecular target: Serine/threonine-protein kinase WNK4 (Homo sapiens) (UniProt Q96J92); conditions: Compound concentration 1000.0 nM
[43] = molecular target: Mitogen-activated protein kinase kinase kinase 20 (Homo sapiens) (UniProt Q9NYL2); conditions: Compound concentration 1000.0 nM
[44] = molecular target: 5-hydroxytryptamine receptor 2A (Homo sapiens) (UniProt P28223); conditions: Compound concentration 10.0 uM
[45] = molecular target: D(1B) dopamine receptor (Homo sapiens) (UniProt P21918); conditions: Compound concentration 10.0 uM

Compound: O=C(NS(=O)(=O)c1ccc(NCC2CCOCC2)c([N+](=O)[O-])c1)c1ccc(N2CCN(Cc3ccc(C(F)(F)F)cc3-c3ccc(Cl)cc3)CC2)cc1Oc1cnc2[nH]ccc2c1 [A-1210227]
- % Inhibition of Control Values (Mean n=2) [1]: 11%
- % Inhibition of Control Specific Binding (Mean n=2) [2]: 3.1%
- % Inhibition of Control Specific Binding (Mean n=2) [3]: 23.2%
- % Inhibition of Control Specific Binding (Mean n=2) [4]: 24%
- % Inhibition of Control Specific Binding (Mean n=2) [5]: 10.2%
- % Inhibition of Control Specific Binding (Mean n=2) [6]: 2.2%
- residual activity [7]: 84%
- residual activity [8]: 86%
- residual activity [9]: 84%
- residual activity [10]: 81%
- residual activity [11]: 92%
- residual activity [12]: 80%
- residual activity [13]: 100%
- residual activity [14]: 100%
- residual activity [15]: 100%
- residual activity [16]: 75%
- residual activity [17]: 93%
- residual activity [18]: 100%
- residual activity [19]: 94%
- residual activity [20]: 100%
- residual activity [21]: 99%
- residual activity [22]: 100%
- residual activity [23]: 100%
- residual activity [24]: 100%
- residual activity [25]: 100%
- residual activity [26]: 100%
- residual activity [27]: 76%
- residual activity [28]: 98%
- residual activity [29]: 100%
- residual activity [30]: 100%
- residual activity [31]: 99%
- residual activity [32]: 78%
- residual activity [33]: 100%
- residual activity [34]: 86%
- residual activity [35]: 91%
- residual activity [36]: 100%
- residual activity [37]: 100%
- residual activity [38]: 100%
- residual activity [39]: 100%
- residual activity [40]: 87%
- residual activity [41]: 100%
- residual activity [42]: 71%
- residual activity [43]: 100%
- inhibition [44]: 12.5%
- inhibition [45]: 9.7%

Compound: CO[C@H]1CC[C@H](CNc2ccc(S(=O)(=O)NC(=O)c3ccc(N4CCN(CC5=C(c6ccc(Cl)cc6)CC(C)(C)CC5)CC4)cc3Oc3cnc4[nH]ccc4c3)cc2[N+](=O)[O-])CC1 [A-1211212]
- % Inhibition of Control Values (Mean n=2) [1]: 3.2%
- % Inhibition of Control Specific Binding (Mean n=2) [2]: 5.9%
- % Inhibition of Control Specific Binding (Mean n=2) [3]: 1.1%
- % Inhibition of Control Specific Binding (Mean n=2) [4]: 17.3%
- % Inhibition of Control Specific Binding (Mean n=2) [5]: 11.4%
- % Inhibition of Control Specific Binding (Mean n=2) [6]: 29.7%
- residual activity [7]: 100%
- residual activity [8]: 71%
- residual activity [9]: 73%
- residual activity [10]: 57%
- residual activity [11]: 73%
- residual activity [12]: 100%
- residual activity [13]: 100%
- residual activity [14]: 94%
- residual activity [15]: 91%
- residual activity [16]: 98%
- residual activity [17]: 70%
- residual activity [18]: 80%
- residual activity [19]: 85%
- residual activity [20]: 100%
- residual activity [21]: 100%
- residual activity [22]: 86%
- residual activity [23]: 97%
- residual activity [24]: 99%
- residual activity [25]: 100%
- residual activity [26]: 100%
- residual activity [27]: 83%
- residual activity [28]: 93%
- residual activity [29]: 96%
- residual activity [30]: 100%
- residual activity [31]: 77%
- residual activity [32]: 60%
- residual activity [33]: 100%
- residual activity [34]: 67%
- residual activity [35]: 88%
- residual activity [36]: 85%
- residual activity [37]: 70%
- residual activity [38]: 100%
- residual activity [39]: 55%
- residual activity [40]: 88%
- residual activity [41]: 100%
- residual activity [42]: 67%
- residual activity [43]: 100%
- inhibition [44]: 12.7%
- inhibition [45]: 34.1%
